Assay results reported in ChEMBL document CHEMBL1140395, “Diamino-C,N-diarylpyridine positional isomers as inhibitors of lysophosphatidic acid acyltransferase-beta” (Bioorg Med Chem Lett, 2005).
Values joined by “and” are separate entries in the source; they are usually repeats but may differ in a detail not shown here. Equal entries are not always repeated.

Molecular target: T1, 1-acyl-sn-glycerol-3-phosphate acyltransferase beta (Homo sapiens, UniProt O15120)
T1 sequence (O15120 whole entry): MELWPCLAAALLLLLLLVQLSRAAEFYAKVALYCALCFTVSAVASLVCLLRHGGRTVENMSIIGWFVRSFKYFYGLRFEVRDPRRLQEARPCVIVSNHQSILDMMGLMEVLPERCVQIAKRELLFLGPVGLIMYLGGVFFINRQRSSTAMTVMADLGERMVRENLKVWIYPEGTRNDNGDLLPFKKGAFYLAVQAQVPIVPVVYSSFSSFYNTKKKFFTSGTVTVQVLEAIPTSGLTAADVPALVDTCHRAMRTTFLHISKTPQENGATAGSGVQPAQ
Experiment: Inhibitory activity against Lysophosphatidic acid acyltransferase-beta enzyme over-expressed in Sf9 insect cell membrane

| IC50 | SMILES |
| --- | --- |
| 2050 nM | COc1ccc(Cl)cc1-c1cc(N)nc(Nc2ccc(Cl)cc2)n1 |
| 70 nM and 45 nM | COc1ccc(Cl)cc1-c1nc(N)nc(Nc2ccc(Cl)cc2)n1 |
| > 40000 nM | COc1ccc(Cl)cc1-c1cc(Nc2ccc(C)cc2)cc(N)n1 |
| 260 nM | CCOc1ccc(Cl)cc1-c1nc(N)nc(Nc2ccc(Cl)cc2)n1 |
